Assay results taken from patent US8557875B2, “Gene transfer agent composition containing polyamidoamine dendron” (Public University Corporation Osaka Prefecture University, priority 2009, dated 2013).

What was measured:
NHDF-ad cells [1] = assay: Gene transfer (GFP expression, luciferase activity) versus commercial agents (Example 6); format: cell-based, human; conditions: single transfection, 48 hours
Experimental: pEGFP-C1 expressing a green fluorescent protein was used as a gene transfer plasmid; and NHDF-ad cells, which were normal […] cells derived from adult humans and also used for the production of iPS cells, were used as target cells. Lipoplexes were individually prepared using DL-U2. Then, gene transfer was performed.
(NHDF-ad cells: 2.5×10^4 cells/well·DMEM+10% FBS (Pe/St) 500 μl)
(i) A 20 mM Tris-HCl (pH 7.4) buffer was dispensed into two tubes at, individually, 56.3 μl (for NP ratio=3) and 37.5 μl (for NP ratio=6).
(ii) 1.0 μg of plasmid DNA (pCAG-GFP) was added to each of the two tubes prepared in step (i) at 2 μl (1.0 μg), and the contents were stirred. […]
(vii) 48 hours later, luciferase activity was measured according to the protocol of the luciferase assay system (Promega, E1501).
Lipofectamine LTX: Gene transfer was performed according to the protocol, and luciferase activity was measured according to the protocol of the luciferase assay system (Promega, E1501).
FuGENE HD: Gene transfer was performed according to the protocol, and luciferase activity was measured according to the protocol of the luciferase assay system (Promega, E1501).
FuGENE6: Gene transfer was performed according to the protocol, and luciferase activity was measured according to the protocol of the luciferase assay system (Promega, E1501).

NHDF-ad cells [2] = assay: Toxicity evaluation after multiple gene transfer, WST-8 kit (Example 7); format: cell-based, human; conditions: transfer on Day 1, 3, 5, WST-8 on Day 7
Experimental: (NHDF-ad cells: 3.5×10^3 cells/well·DMEM+10% FBS (Pe/St) 70 μl)
(i) A 20 mM Tris-HCl (pH 7.4) buffer was dispensed into tubes at 35.5 μl (for NP ratio=6).
(ii) 1.0 μg of plasmid DNA (pCAG-GFP) was added to each of the two tubes prepared in step (i) at 2 μl (1.0 μg), and the contents were stirred.
(iii) To the prepared plasmid DNA solution was added 37.5 μl of a DL-U2 liposome solution (N/P ratio=6), and the whole was thoroughly mixed using a vortex and incubated at room temperature for 30 minutes.
(iv) 25 μl of an Opti-MEM(R) I Reduced-Serum Medium was further added, and the whole was thoroughly mixed and allowed to stand at room temperature for 5 minutes.
7 μl and 14 μl per well of the DL-plasmid DNA complex solutions was individually added to three wells, and the contents were mixed by shaking the plate so as to be homogeneous.
(vi) The cells were incubated at 37° C. in 5% CO2 for 4 hours, and the growth medium was replaced.
For the cells subjected to gene transfer operations on Day 1, the same gene transfer was performed on Day 3 and Day 5, as well.
Day 7 Toxicity evaluation was performed according to the protocol of a WST-8 kit (Kishida Chemical Co., Ltd.).
(a well to which no lipoplex solution was added was defined as 100%) […]

Which “gene transfer (GFP gene) efficiency” value (NHDF-ad cells [1]) does the source give for `CCCCCCCC/C=C\CCCCCCCCN(CCCCCCCC/C=C\CCCCCCCC)CCC(=O)NCCN(CCC(=O)NCCN)CCC(=O)NCCN` (racemic) [DL-G1-U2] here?
The value was “allowed the gene to be transferred into the cells at a remarkably high frequency”.

And the “toxicity after multiple gene transfer” value (NHDF-ad cells [2])?
Its value is “lowest toxicity”.
